Source: patent publication US12180187B2, “1-phenyl-5-azinylpyrazolyl-3-oxyalkyl acids and their use for controlling unwanted plant growth” (BAYER AKTIENGESELLSCHAFT, priority 2019, dated 2024)

What was measured:
ALOMY [1] = experiment: Pre-emergence action at 320 g/ha against ALOMY; format: in vivo, Alopecurus myosuroides; settings: scored visually after about 3 weeks vs untreated controls (100% = plants have died)
Method in brief: (§1)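 Effect rated visually (% vs untreated control) about 3 weeks after pre-emergence spraying of WP/EC formulation onto soil; spray carried 0.5% additive at 600 l/ha water.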

AVEFA = experiment: Pre-emergence action at 320 g/ha against AVEFA; format: in vivo; settings: visual scoring after about 3 weeks vs untreated controls
Description: (§2) b) Seeds of monocotyledonous and dicotyledonous weed plants and crop plants are placed in plastic or organic planting pots and covered with soil. The compounds of the invention, formulated in the form of wettable powders (WP) or as emulsion concentrates (EC), are then applied onto the surface of the covering soil as aqueous suspension or emulsion with addition of 0.5% additive at a water application rate of 600 l/ha (converted). After the treatment, the pots are placed in a greenhouse and kept under good growth conditions for the trial plants. After about 3 weeks, the effect of the preparations is scored visually in comparison with untreated controls as percentages. For example, 100% activity=the plants have died, 0% activity=like control plants. Tables 13 to 26 below show the effects of selected compounds of the general formula (I) on various harmful plants and at an application rate corresponding to 320 g/ha, which were obtained by the experimental procedure mentioned above.

ECHGC = experiment: Pre-emergence action at 320 g/ha against ECHGC; format: in vivo, Echinochloa crus-galli; settings: visual scoring after about 3 weeks vs untreated controls
Description: as §2

LOLRI [2] = experiment: Pre-emergence action at 320 g/ha against LOLRI; format: in vivo, Lolium rigidum; settings: visual scoring after about 3 weeks vs untreated controls
Description: as §2

SETVI [3] = experiment: Pre-emergence action at 320 g/ha against SETVI; format: in vivo, Setaria viridis; settings: visual scoring after about 3 weeks vs untreated controls
Description: as §2

AMARE [4] = experiment: Pre-emergence action at 320 g/ha against AMARE; format: in vivo, Amaranthus retroflexus; settings: visual scoring after about 3 weeks vs untreated controls
Method in brief: as §1

MATIN [5] = experiment: Pre-emergence action at 320 g/ha against MATIN; format: in vivo, Tripleurospermum inodorum (Matricaria inodora); settings: visual scoring after about 3 weeks vs untreated controls
Description: as §2

POLCO = experiment: Pre-emergence action at 320 g/ha against POLCO; format: in vivo, Fallopia convolvulus (Polygonum convolvulus); settings: visual scoring after about 3 weeks vs untreated controls
Method in brief: as §1

VERPE [6] = experiment: Pre-emergence action at 320 g/ha against VERPE; format: in vivo, Veronica persica; settings: visual scoring after about 3 weeks vs untreated controls
Description: as §2

VIOTR = experiment: Pre-emergence action at 320 g/ha against VIOTR; format: in vivo, Viola tricolor; settings: dosage 320 g/ha
Method in brief: as §1

POAAN [7] = experiment: Pre-emergence action against POAAN, 1280 g/ha; format: in vivo, Poa annua; settings: visual scoring after about 3 weeks vs untreated controls, 100% = plants have died, 0% = like control plants
Method in brief: (§3)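 Each pot was doubly sown in sandy loam and covered, then its soil surface was treated with compound suspension or emulsion containing 0.5% additive at 600 L/ha water. Plants grew in a greenhouse; effect was rated visually as percentages versus controls after about 3 weeks.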

AMARE [8] = experiment: Pre-emergence action against AMARE, 1280 g/ha; format: in vivo, Amaranthus retroflexus; settings: scored visually after about 3 weeks vs untreated controls (100% = plants have died)
Method in brief: as §3

STEME = experiment: Pre-emergence action against STEME, 1280 g/ha; format: in vivo, Stellaria media; settings: scored visually after about 3 weeks vs untreated controls (100% = plants have died)
Method in brief: as §3

ABUTH = experiment: Post-emergence action against ABUTH, 1.28 kg/ha; format: in vivo, Abutilon theophrasti; settings: dosage 1280 g/ha, visual rating about 3 weeks after treatment vs untreated controls (100% = plants died)
Method in brief: (§4)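 Herbicidal action is estimated by eye after about three weeks under optimum greenhouse conditions, on a 0–100% scale against untreated plants. Compounds are applied post-emergence to one-leaf-stage weeds as aqueous WP or EC preparations containing 0.5% additive, sprayed at 600 L/ha.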

AMARE [9] = experiment: Post-emergence action against AMARE, 1.28 kg/ha; format: in vivo, Amaranthus retroflexus; settings: dosage 1280 g/ha, visual rating about 3 weeks after treatment vs untreated controls (100% = plants died)
Method in brief: as §4

KCHSC = experiment: Post-emergence action against KCHSC, 1.28 kg/ha; format: in vivo, Bassia scoparia; settings: dosage 1280 g/ha, visual rating about 3 weeks after treatment vs untreated controls (100% = plants died)
Procedure: • a) Seeds of mono- and dicotyledonous weed plants are placed in plastic pots in sandy loam soil (twin sowing with one species each of mono- or dicotyledonous weed plants per pot), covered with soil and cultivated in a greenhouse under controlled growth conditions. 2 to 3 weeks after sowing, the test plants are treated at the one-leaf stage. The compounds of the invention, formulated in the form of wettable powders (WP) or as emulsion concentrates (EC), are applied to the green parts of the plants as aqueous suspension or emulsion with addition of 0.5% additive at a water application rate equivalent to 600 litres per hectare. After the test plants have been kept in the greenhouse under optimum growth conditions for about 3 weeks, the activity of the preparations is rated visually in comparison to untreated controls. For example, 100% activity=the plants have died, 0% activity=like control plants. As shown by the results, compounds of the general formula (I) of the invention, in post-emergence treatment, have very good herbicidal efficacy (90% to 100% herbicidal action) against harmful plants such as Abutilon theophrasti, Digitaria sanguinalis, Echinochloa crus-galli, Matricaria inodora, Poa annua, at an application rate of 1.28 kg of active substance per hectare.

VERPE [10] = experiment: Post-emergence action against VERPE, 1.28 kg/ha; format: in vivo, Veronica persica; settings: dosage 1280 g/ha, visual rating about 3 weeks after treatment vs untreated controls (100% = plants died)
Method in brief: as §4

ALOMY [11] = experiment: Pre-emergence action against ALOMY, 1280 g/ha; format: in vivo, Alopecurus myosuroides; settings: visual scoring after about 3 weeks vs untreated controls, 100% = plants have died, 0% = like control plants
Method in brief: as §3

DIGSA [12] = experiment: Pre-emergence action against DIGSA, 1280 g/ha; format: in vivo, Digitaria sanguinalis; settings: visual scoring after about 3 weeks vs untreated controls, 100% = plants have died, 0% = like control plants
Method in brief: as §3

ECHCG = experiment: Pre-emergence action against ECHCG, 1280 g/ha; format: in vivo, Echinochloa crus-galli; settings: visual scoring after about 3 weeks vs untreated controls, 100% = plants have died, 0% = like control plants
Method in brief: as §3

LOLRI [13] = experiment: Pre-emergence action against LOLRI, 1280 g/ha; format: in vivo, Lolium rigidum; settings: visual scoring after about 3 weeks vs untreated controls, 100% = plants have died, 0% = like control plants
Method in brief: as §3

SETVI [14] = experiment: Pre-emergence action against SETVI, 1280 g/ha; format: in vivo, Setaria viridis; settings: visual scoring after about 3 weeks vs untreated controls, 100% = plants have died, 0% = like control plants
Method in brief: as §3

MATIN [15] = experiment: Pre-emergence action against MATIN, 1280 g/ha; format: in vivo, Tripleurospermum inodorum (Matricaria inodora); settings: scored visually after about 3 weeks vs untreated controls (100% = plants have died)
Method in brief: as §3

VERPE [16] = experiment: Pre-emergence action against VERPE, 1280 g/ha; format: in vivo, Veronica persica; settings: scored visually after about 3 weeks vs untreated controls (100% = plants have died)
Method in brief: as §3

ALOMY [17] = experiment: Post-emergence action against ALOMY, 1.28 kg/ha; format: in vivo, Alopecurus myosuroides; settings: dosage 1280 g/ha, visual rating about 3 weeks after treatment vs untreated controls
Method in brief: as §4

POAAN [18] = experiment: Post-emergence action against POAAN, 1.28 kg/ha; format: in vivo, Poa annua; settings: dosage 1280 g/ha, visual rating about 3 weeks after treatment vs untreated controls
Method in brief: as §4

MATIN [19] = experiment: Post-emergence action against MATIN, 1.28 kg/ha; format: in vivo, Tripleurospermum inodorum (Matricaria inodora); settings: dosage 1280 g/ha, visual rating about 3 weeks after treatment vs untreated controls (100% = plants died)
Method in brief: as §4

DIGSA [20] = experiment: Post-emergence action against DIGSA, 1.28 kg/ha; format: in vivo, Digitaria sanguinalis; settings: dosage 1280 g/ha, visual rating about 3 weeks after treatment vs untreated controls
Method in brief: as §4

Compound	Pre-emergence action at 320 g/ha against ALOMY in % (ALOMY [1]) [%]	Pre-emergence action against AVEFA in % (AVEFA) [%]	Pre-emergence action against ECHGC in % (ECHGC) [%]	Pre-emergence action against LOLRI in % (LOLRI [2]) [%]	Pre-emergence action against AMARE in % (AMARE [4]) [%]	Pre-emergence action against MATIN in % (MATIN [5]) [%]	Pre-emergence action against VERPE in % (VERPE [6]) [%]	Pre-emergence action against VIOTR in % (VIOTR) [%]	Pre-emergence action against POAAN (POAAN [7]) [%]	Pre-emergence action against AMARE (AMARE [8]) [%]	Pre-emergence action against STEME (STEME) [%]	Post-emergence action against KCHSC (KCHSC) [%]	Post-emergence action against VERPE (VERPE [10]) [%]	Pre-emergence action against ALOMY (ALOMY [11]) [%]	Pre-emergence action against DIGSA (DIGSA [12]) [%]	Pre-emergence action against LOLRI (LOLRI [13]) [%]	Post-emergence action against ALOMY (ALOMY [17]) [%]	other results
COC(=O)C1CCCN1C(=O)COc1nn(-c2ccccc2F)c(-c2ccc(F)nc2)c1Br (stereo not drawn) [Example X-016]	100	90	90	90	100	90	100	100	–	–	–	–	–	–	–	–	–	Pre-emergence action against SETVI in % (SETVI [3]): 100%; Pre-emergence action against POLCO in % (POLCO): 80%
N#CCCNC(=O)COc1nn(-c2ccc(F)cc2F)c(-c2ccc(F)nc2)c1Br [Example X-029]	–	–	–	–	–	–	–	–	100	100	90	90	100	–	–	–	–	Post-emergence action against ABUTH (ABUTH): 90%; Post-emergence action against AMARE (AMARE [9]): 90%
N#CCCNC(=O)COc1nn(-c2ccccc2F)c(-c2ccc(F)nc2)c1Br [Example X-032]	–	–	–	–	–	–	–	–	100	100	100	90	100	100	100	100	100	Pre-emergence action against ECHCG (ECHCG): 100%; Pre-emergence action against SETVI (SETVI [14]): 100%; Pre-emergence action against MATIN (MATIN [15]): 100%; Pre-emergence action against VERPE (VERPE [16]): 100%; Post-emergence action against POAAN (POAAN [18]): 100%; Post-emergence action against MATIN (MATIN [19]): 90%
CONC(=O)COc1nn(-c2ccc(F)cc2F)c(-c2ccc(F)cn2)c1Br [II-004]	–	–	–	–	–	–	–	–	100	–	–	90	100	100	100	90	100	Post-emergence action against DIGSA (DIGSA [20]): 100%
COC(=O)[C@@H](C)Oc1nn(-c2ccccc2)c(-c2cccnc2)c1Cl [VII-041]	90	80	80	90	100	100	100	80	–	–	–	–	–	–	–	–	–	–
